In data set [1] the target is CYP2C9 (Homo sapiens, UniProt P11712). Kind of data set: biochemical.
The target in data set [2] is T1, hURAT1 (Homo sapiens, UniProt Q96S37).
T1 construct: expressed in transfected cells; host or cells: HEK293 (human kidney cell line), transient transfection with Fugene6
T1 sequence (Q96S37 1-553): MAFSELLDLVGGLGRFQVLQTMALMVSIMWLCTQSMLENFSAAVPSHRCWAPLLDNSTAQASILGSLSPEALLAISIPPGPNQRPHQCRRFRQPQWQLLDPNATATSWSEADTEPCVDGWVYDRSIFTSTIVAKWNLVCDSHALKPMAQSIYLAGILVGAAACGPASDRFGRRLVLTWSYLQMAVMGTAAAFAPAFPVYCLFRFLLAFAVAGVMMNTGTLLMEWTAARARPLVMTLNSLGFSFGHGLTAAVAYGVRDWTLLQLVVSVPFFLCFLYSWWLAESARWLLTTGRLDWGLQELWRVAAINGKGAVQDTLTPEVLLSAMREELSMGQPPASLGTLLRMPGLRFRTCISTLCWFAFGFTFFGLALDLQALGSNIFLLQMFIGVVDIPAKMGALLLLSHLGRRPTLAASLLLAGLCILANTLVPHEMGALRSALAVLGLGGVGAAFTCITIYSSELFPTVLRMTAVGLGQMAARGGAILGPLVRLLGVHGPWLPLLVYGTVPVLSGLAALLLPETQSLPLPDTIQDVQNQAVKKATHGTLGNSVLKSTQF
The data set can be described thus: Test for inhibiting urate reuptake activity via hURAT1 (uric acid transport assay in hURAT1-overexpressed HEK293 cell line). The data set is classed as cell-based. The following applies: hURAT1-overexpressed HEK293 cells, [14C]-uric acid uptake, 100 μM uric acid; read-out: IC50 (μM) hURAT, level of uric acid reuptake inhibition. The protocol: Test for Inhibiting Urate Reuptake Activity Via hURAT1
[hURAT1 Overexpression by Transient Transfection in Human Kidney Cell Line]
A human kidney cell line, HEK293 was incubated by using OptiMEM medium in 100 mm dish at (3*10^6 cells) for 24 hours. In order for the expression of hURAT1, a transfection mixture solution (Fugene6 18 μl:hURAT1 DNA 6 μg=3:1, in 600 μl OptiMEM medium/dish) was prepared and kept for 15 minutes at room temperature. To each dish, 600 μl of the mixture solution was injected and then incubated in 37[…] cell incubator for 24 hours. The hURAT1-overexpressed HEK293 cell line was trypsinized and cells were harvested. Cells were resuspended in medium and seeded at 6*10^5 cells/well and incubated for 24 hours in 24-well plate which was surface-coated with Poly-D-Lysine.
[Uric Acid Transport Assay in hURAT1-Overexpressed HEK293 Cell Line]
For each concentration, the stock sample solution was diluted in PBS (1 μl in 800 μl of PBS) as 1.25 fold concentrated working sample solution to obtain final concentrations of 0.01, 0.1, 1 and 10 μM. The hURAT1-overexpressed cell line was washed with 1 ml of PBS. After washing, PBS was discarded and the sample solution was diluted by 1.25 fold with PBS. Preincubation of cells with 200 μl/well of sample solution made above was conducted for 30 minutes in 37[…] cell incubator. After the incubation, each well was treated with 50 μl of PBS containing 500 μM [^14C]-uric acid (final 100 μM of uric acid/well). Cells were incubated for 2 minutes. The cells were washed twice with 1 ml of PBS.
To measure the uric acid uptake, each well was treated with 150 μl of M-per buffer (PIERCE) and kept in 37° C. cell incubator for 30 minutes to make cell lysates. 150 μl of cell lysates was transferred into test tube and 4 ml of scintillation cocktail was added. CPM value of [^14C]-uric acid absorbed into cells was detected using liquid scintillation counter. IC50 for the inhibition of uric acid uptake by each test sample was analyzed by computational numerical processing.

A short description of data set [3]: Test for solubility according to pH. The format is physicochemical. The following applies: 37° C. 2 hours; for solubility at 2 h: 37 °C, thermodynamic from solid.
Protocol: 2.0 g of sodium chloride was dissolved in 7.0 mL of hydrochloric acid and water to make the total volume of 1000 mL. This solution was colorless and clear. Its pH was about 1.2.
To 250 mL of 0.2 mol/L potassium dihydrogen phosphate solution, 118 mL of 0.2 mol/L sodium hydroxide solution and water were added to make the total volume of 1000 mL. This solution was colorless and clear. Its pH was about 6.8.
For the compounds of present invention prepared in the examples, the test samples were prepared in each of the first and second solutions with 2 mg/mL concentration. This test sample solution was agitated for 10 seconds, sonicated for 1 minute and heated at 37° C. for 2 hours. The heated test sample solution was filtered to remove undissolved compounds therein. From filtered solution, 100 μl of the completely dissolved solution was sampled and 100 μl of acetonitrile was added thereto to make test sample solution. For each analysis of test sample solution, the solubility was measured by using liquid chromatography.
Setting [4] is: pH 1.2, simulated gastric fluid, first solution pH about 1.2, 2 mg/mL, read-out: Solubility (μg/mL) pH 1.2.

pIC50: −log10 of the molar value. In brackets after ≈: the same amount, converted by molar mass. Where a name gives a salt, the structure may show the parent alone. Read-outs that look alike come from different tables or passages of the source. Bounds are passed on as bounds.

As usually defined, the pIC50 is the negative decadic logarithm of the IC50, by convention in mol/L. The low end stands for a large IC50, the high end for a small IC50. As usually defined, the IC50 is the concentration that gives 50% inhibition.

Chain of CYP2C9 (P11712 whole entry): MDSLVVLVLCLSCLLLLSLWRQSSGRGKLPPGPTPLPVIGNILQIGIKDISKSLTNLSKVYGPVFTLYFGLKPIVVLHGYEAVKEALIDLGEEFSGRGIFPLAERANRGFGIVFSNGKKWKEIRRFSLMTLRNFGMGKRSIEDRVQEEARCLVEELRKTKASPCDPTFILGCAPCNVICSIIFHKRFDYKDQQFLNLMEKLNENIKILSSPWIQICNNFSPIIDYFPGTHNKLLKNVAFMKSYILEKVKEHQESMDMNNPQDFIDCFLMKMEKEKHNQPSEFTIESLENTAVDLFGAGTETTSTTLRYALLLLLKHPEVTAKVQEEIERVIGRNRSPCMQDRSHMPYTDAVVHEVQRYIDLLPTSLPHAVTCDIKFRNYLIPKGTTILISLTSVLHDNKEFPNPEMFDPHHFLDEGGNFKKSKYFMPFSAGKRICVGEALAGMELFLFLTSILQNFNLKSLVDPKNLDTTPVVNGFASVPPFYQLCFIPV

For the compound `COc1c(Br)cc(C(=O)N2CCOc3ccncc32)cc1Br` [Compound 2, (3,5-dibromo-4-methoxy-phenyl)-(2,3-dihydro-pyrido[4,3-b][1,4]oxazin-4-yl)-methanone], in data set [1], the pIC50 is below 4.92. Moreover, the 50% inhibitory concentration (IC50) in data set [2] came out at 0.136 µM.
For `COc1c(Br)cc(C(=O)N2CCOc3cnccc32)cc1Br` [Compound 5, (3,5-dibromo-4-methoxy-phenyl)-(2,3-dihydro-pyrido[3,4-b][1,4]oxazin-1-yl)-methanone], in data set [2], the IC50 was 0.175 µM.
As for `O=C(c1cc(Br)c(O)c(Br)c1)N1CCOc2cnccc21` [Compound 6, (3,5-dibromo-4-hydroxy-phenyl)-(2,3-dihydro-pyrido[3,4-b][1,4]oxazin-1-yl)-methanone], the pIC50 in data set [1] was 5.52. Also, the 50% inhibitory concentration (IC50) in data set [2] turned out to be 0.0565 µM.
In the case of `O=C(c1cc(Br)c(O)c(Br)c1)N1CCOc2ncc(C3CC3)cc21` [Compound 9, (3,5-dibromo-4-hydroxy-phenyl)-(7-cyclopropyl-2,3-dihydro-pyrido[2,3-b][1,4]oxazin-1-yl)-methanone], the negative logarithm of the IC50 (pIC50) in data set [1] was below 4.70. Also, in data set [2], the 50% inhibitory concentration (IC50) came out at 0.02 µM.
Regarding `O=C(c1ccc(O)c(Cl)c1)N1CCOc2ccncc21` [Compound 10, (3-chloro-4-hydroxy-phenyl)-(2,3-dihydro-pyrido[4,3-b][1,4]oxazin-4-yl)-methanone bromic acid salt], the negative logarithm of the IC50 (pIC50) in data set [1] is below 4.22. For the same compound, in data set [2], the half-inhibitory concentration (IC50) worked out at 0.334 µM.
On the same counts, the results for `O=C(c1ccc(O)c(Br)c1)N1CCOc2ccncc21` [Compound 11, (3-bromo-4-hydroxy-phenyl)-(2,3-dihydro-pyrido[4,3-b][1,4]oxazin-4-yl)-methanone bromic acid salt] are below 4.22 and 0.175 µM.
`O=C(c1ccc(O)c(Br)c1)N1CCOc2cnccc21` [Compound 16, (3-bromo-4-hydroxy-phenyl)-(2,3-dihydro-pyrido[3,4-b][1,4]oxazin-1-yl)-methanone bromic acid salt] gave a pIC50 in data set [1] of 5.46. Moreover, in data set [2], the IC50 amounted to 0.93 µM.
Turning to `O=C(c1ccc(O)c(C(F)(F)F)c1)N1CCOc2cnccc21` [Compound 19, (2,3-dihydro-pyrido[3,4-b][1,4]oxazin-1-yl)-(4-hydroxy-3-trifluoromethyl-phenyl)-methanone], in data set [1], the negative-log IC50 (pIC50) is 5.17. Moreover, the IC50 in data set [2] was found to be 0.269 µM.
For the compound `O=C(c1cc(Br)c(O)c(Br)c1)N1CCOc2ncc(-c3ccccc3)cc21` [Compound 20, (3,5-dibromo-4-hydroxy-phenyl)-(7-phenyl-2,3-dihydro-pyrido[2,3-b][1,4]oxazin-1-yl)-methanone], the negative-log IC50 (pIC50) in data set [1] was 5.28. For the same compound, in data set [2], the 50% inhibitory concentration (IC50) stood at 0.034 µM.
The like results for `O=S(=O)(c1cc(Cl)c(O)c(Cl)c1)N1CCOc2ccncc21` [Compound 21, 2,6-dichloro-4-(2,3-dihydro-pyrido[4,3-b][1,4]oxazin-4-sulfonyl)-phenol] were, in that order, 5.95 and 0.954 µM.
With `COc1c(Br)cc(C(=O)N2CCOc3ncc(C(F)(F)F)cc32)cc1Br` [Compound 22-1, (3,5-dibromo-4-methoxy-phenyl)-(7-trifluoromethyl-2,3-dihydro-pyrido[2,3-b][1,4]oxazin-1-yl)-methanone], the pIC50 in data set [1] is 4.87. Also, in data set [2], the concentration for half-maximal inhibition (IC50) worked out at 0.0888 µM.
Regarding `O=C(c1cc(Br)c(O)c(Br)c1)N1CCOc2ncc(Br)cc21` [Compound 25, (7-bromo-2,3-dihydro-pyrido[2,3-b][1,4]oxazin-1-yl)-(3,5-dibromo-4-hydroxy-phenyl)-methanone], the negative-log IC50 (pIC50) in data set [1] is below 4.70. Moreover, the IC50 in data set [2] stood at 0.0073 µM.
The compound `COc1c(Br)cc(C(=O)N2CCOc3ncc(C)cc32)cc1Br` [Compound 27-1, (3,5-dibromo-4-methoxy-phenyl)-(7-methyl-2,3-dihydro-pyrido[2,3-b][1,4]oxazin-1-yl)-methanone] showed a negative logarithm of the IC50 (pIC50) in data set [1] below 4.70. Further, in data set [2], the IC50 came out at 0.036 µM.
Regarding `O=C(c1ccc(O)c(Br)c1)N1CCOc2ccncc21` [Compound 38, (3-bromo-4-hydroxy-phenyl)-(2,3-dihydro-pyrido[4,3-b][1,4]oxazin-4-yl)-methanone], in data set [1], the negative-log IC50 (pIC50) is below 4.70. Besides, in data set [2], the 50% inhibitory concentration (IC50) worked out at 0.0964 µM.
Take `O=C(c1cc(Br)c(O)c(Br)c1)N1CCOc2ncc(-c3ccc(C(F)(F)F)cc3)cc21` [Compound 45, (3,5-dibromo-4-hydroxy-phenyl)-[7-(4-trifluoromethyl-phenyl)-2,3-dihydro-pyrido[2,3-b][1,4]oxazin-1-yl]-methanone]: the pIC50 in data set [1] is 5.93. Further, in data set [2], the IC50 stood at 0.0197 µM.
Regarding `O=C(c1cc(Br)c(O)c(Br)c1)N1CCOc2ncc(-c3ccccc3C(F)(F)F)cc21` [Compound 46, (3,5-dibromo-4-hydroxy-phenyl)-[7-(2-trifluoromethyl-phenyl)-2,3-dihydro-pyrido[2,3-b][1,4]oxazin-1-yl]-methanone], the pIC50 in data set [1] was 5.96. Also, in data set [2], the IC50 was 0.0047 µM.
For `COc1c(Br)cc(C(=O)N2CCOc3ncc(C#N)cc32)cc1Br` [Compound 47-1, 1-(3,5-dibromo-4-methoxy-benzoyl)-2,3-dihydro-1H-pyrido[2,3-b][1,4]oxazin-7-carbonitrile], the negative-log IC50 (pIC50) in data set [1] is below 4.70. For the same compound, in data set [2], the half-maximal inhibitory concentration (IC50) was 0.516 µM.
In the case of `COc1c(Br)cc(C(=O)N2CCOc3ncc(-c4cccc(N(C)C)c4)cc32)cc1Br` [Compound 48, (3,5-dibromo-4-methoxy-phenyl)-[7-(3-dimethylamino-phenyl)-2,3-dihydro-pyrido[2,3-b][1,4]oxazin-1-yl]-methanone], the pIC50 in data set [1] is 5.77. In addition, the IC50 in data set [2] is 0.0933 µM.
The like results for `COc1c(Br)cc(C(=O)N2CCOc3ncc(-c4cccc([N+](=O)[O-])c4)cc32)cc1Br` [Compound 49, (3,5-dibromo-4-methoxy-phenyl)-[7-(3-nitro-phenyl)-2,3-dihydro-pyrido[2,3-b][1,4]oxazin-1-yl]-methanone] were, in that order, below 4.70 and 0.311 µM.
On to `O=C(c1cc(Br)c(O)c(Br)c1)N1CCOc2ncc(-c3cccc([N+](=O)[O-])c3)cc21` [Compound 50, (3,5-dibromo-4-hydroxy-phenyl)-[7-(3-nitro-phenyl)-2,3-dihydro-pyrido[2,3-b][1,4]oxazin-1-yl]-methanone], for which the pIC50 in data set [1] was 5.90. In addition, the IC50 in data set [2] was found to be 0.0044 µM.
On the same counts, the results for `Oc1c(Br)cc(C(=S)N2CCOc3ccncc32)cc1Br` [Compound 51, (3,5-dibromo-4-hydroxy-phenyl)-(2,3-dihydro-pyrido[4,3-b][1,4]oxazin-4-yl)-methanethione] are 5.06 and 0.0115 µM.
On to `O=C(c1cc(O)nc(O)n1)N1CCOc2ccncc21` [Compound 60, (2,3-dihydro-pyrido[4,3-b][1,4]oxazin-4-yl)-(2,6-dihydroxy-pyrimidin-4-yl)-methanone], for which the solubility at 2 h in data set [3] (setting [4]) is 2130 µg/mL (≈ 7.75 mM); in data set [3] (pH 6.8, aqueous buffer, second solution pH about 6.8, 2 mg/mL, read-out: Solubility (μg/mL) pH 6.8) it was 600 µg/mL (≈ 2.19 mM). The pIC50 in data set [1] is below 4.70.
As for `CC(=O)c1ccc(-c2cnc3c(c2)N(C(=O)c2cc(Br)c(O)c(Br)c2)CCO3)cc1` [Compound 67, 1-{4-[1-(3,5-dibromo-4-hydroxy-benzoyl)-2,3-dihydro-1H-pyrido[2,3-b][1,4]oxazin-7-yl]-phenyl}-ethanone], in data set [2], the half-inhibitory concentration (IC50) is 0.0078 µM.
On to `O=C(c1cc(Br)c(O)c(Br)c1)N1CCOc2ccncc21` [Compound 71, (3,5-dibromo-4-hydroxy-phenyl)-(2,3-dihydro-pyrido[4,3-b][1,4]oxazin-4-yl)-methanone sulfuric acid salt], for which, in data set [3] (setting [4]), the solubility at 2 h was 2140 µg/mL. The “Solubility (μg/mL) pH 6.8” value in data set [3] (second solution pH about 6.8, 2 mg/mL) is given as 344.7 μg/mL. The negative-log IC50 (pIC50) in data set [1] is below 4.70.

Source of the values: patent publication US8394792B2, “Heterocyclic derivatives” (C&C Research Laboratories, priority 2008, dated 2013).
